Measurements reported in patent US10508113B2, “Inhibitors of tyrosine kinase 2 mediated signaling” (AbbVie Inc., priority 2018, dated 2019).

Legend:
[1] = target: T1, Jak1 (Homo sapiens, UniProt P23458); assay: Jak1 (PSTAT3 TF1) alpha screen assay: inhibition of IL-6 induced phosphorylation of STAT3 in TF1 cells; type: cell-based; details: calculated from tabulated EC50 data (Jak1 / Tyk2)
T1 construct: endogenous in cells; host or cells: TF1 cells
Method in brief: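 IL-6-starved TF1 cells were preincubated 30 min at 37 °C with compound (top final 25 μM, 8-point 1:5 series), then stimulated with IL-6 (100 ng/mL final) for 30 min at 37 °C. Lysates were read for pSTAT3 (Tyr705) by AlphaScreen SureFire. EC50 from percent-activity dose-response curves.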

[2] = target: T2, Jak2 (Homo sapiens, UniProt O60674); assay: Jak2 (PSTATS UT7) alpha screen assay: inhibition of EPO induced phosphorylation of STAT5 in UT7 cells; type: cell-based; details: calculated from tabulated EC50 data (Jak2 / Tyk2)
T2 construct: Cell Type: UT7 cells engineered to express the erythropoietin (EPO) receptor; endogenous in cells; host or cells: UT7 cells engineered to express the EPO receptor
Protocol: 3. JAK2 (PSTATS UT7) ALPHA SCREEN ASSAY
Erythropoietin (EPO) is known to transduce its signal through EPO receptor via Jak2. Activity against Jak2 was therefore measured by determining inhibition of EPO induced phosphorylation of STATS in UT7 cells. […] Materials
Cell Type: UT7 cells engineered to express the erythropoietin (EPO) receptor; Culture Medium: Dulbecco's Modified Eagle Medium (DMEM) with 2 mM L-glutamine, 10 mM hydroxyethyl piperazineethanesulfonic acid (HEPES), 10% heat-inactivated fetal bovine serum (FBS) and Stock EPO (5000U in 250 uL, need 5U/mL, so add 250 μL to 1L of media); Assay Medium: 5% FBS ultra-low IgG and 1% Pen/Strep. Compounds were made-up in 100% dimethyl sulfoxide (DMSO).
Day One - Starve Cells: 4 Flasks for one 384 plate (spin down @1000 rpm for 10 minutes and add DMEM with no EPO).
Day Two—Compound Dilutions:
i. Manual 8-point 1:3 dilution curve: 5 mM top concentration dispensed in row A of a
Corning 96-well polypropylene plate, columns 2-12. DMSO dispensed in position A01 for low and high controls. Compounds were serially diluted 1:3 by adding 10 μL stock to 20 μL DMSO down the plate.
ii. Media dilution of compounds: Serially diluted compounds were diluted 1:50 in assay medium by adding 4 μL compound to 196 μL assay medium in a Corning 96-well polypropylene plate.
384 Alpha Screen Plate Set up: Transferred 2.5 μL/well of compound solution from last dilution plate. Replicates were vertical, so that one column of the 96-well dilution plate goes into one column on the 384-well plate twice. Plated 1×10^5 starved cells/well in 5μL. Washed cells in 10 mL Hank's balanced salt solution (HBSS) after spinning down. Counted live cells. Multiplied by dilution factor and 10,000 (constant) to get the concentration of viable cells. Multiplied by volume of cells to get the total number of live cells. Divided by 20,000,000 cells/mL to get the volume needed. Subtracted the original volume to get the volume to be added to get the final concentration of cells. Mixed in reservoir if needed, ensuring that all cell clumps are broken up (if not broken up, they were removed from the suspension). Cells were plated at 5 μL/well in gray Alpha Screen 384-well plate. Spinned the plate to bring the contents to the bottom of the wells at 400 rpm for 2 minutes. Top final compound concentration: 25 μM. Sealed with adhesive and tapped gently. Incubated cells at 37° C. for 30 minutes.
c. EPO Stimulation (p STATS)
Once cells were in incubator, immediately prepared working stock of EPO (1 nM final assay concentration). EPO stock=2860 nM of sterile filtered liquid in sodium citrate buffer (1 liter of ddH2O containing 5.9 g of sodium citrate, 5.8 g of sodium chloride and 0.06 g of citric acid). Diluted 1:22.72 by adding 4.44 stock EPO to 95.6 pi assay media, then dilute again […] depending on how much volume is needed for the assay plates. Used assay medium to bring to volume. Added 2.5 μL EPO to each well. Spinned plate at 400 rpm briefly; tap the plate gently before covering with an adhesive seal. Cells were incubated at 37° C. for 20 minutes.
Added 2.5 μL of 5X Lysis buffer to each well. Spinned plate at 400 rpm briefly. Incubated at room temperature (on orbital shaker) for 10 minutes.
e. Protein (A) Acceptor Beads Preparation: (Light sensitive)
Phosphorylated Signal Transducer and Activator of Transcription 5 (pSTAT5) was quantified using the PerkinElmer SureFire pSTATS (Tyrosine 694/699) Assay. Calculated total volume needed (wells×15 μL×30%). Divided total volume by 5 to get volume of activation buffer. Subtracted volume of activation buffer from total volume and divide by 40 to get volume of acceptor beads (add last). Total volume - acceptor bead volume - activation buffer to get volume of reaction buffer. Added 15 μL to each well and covered with foil. Shaked on orbital shaker for 2 hours at 500 rpm.
f. Streptavidin Donor Beads Preparation:
Calculated total volume needed (wells×6μL×30%). […]

T1 sequence (P23458 whole entry): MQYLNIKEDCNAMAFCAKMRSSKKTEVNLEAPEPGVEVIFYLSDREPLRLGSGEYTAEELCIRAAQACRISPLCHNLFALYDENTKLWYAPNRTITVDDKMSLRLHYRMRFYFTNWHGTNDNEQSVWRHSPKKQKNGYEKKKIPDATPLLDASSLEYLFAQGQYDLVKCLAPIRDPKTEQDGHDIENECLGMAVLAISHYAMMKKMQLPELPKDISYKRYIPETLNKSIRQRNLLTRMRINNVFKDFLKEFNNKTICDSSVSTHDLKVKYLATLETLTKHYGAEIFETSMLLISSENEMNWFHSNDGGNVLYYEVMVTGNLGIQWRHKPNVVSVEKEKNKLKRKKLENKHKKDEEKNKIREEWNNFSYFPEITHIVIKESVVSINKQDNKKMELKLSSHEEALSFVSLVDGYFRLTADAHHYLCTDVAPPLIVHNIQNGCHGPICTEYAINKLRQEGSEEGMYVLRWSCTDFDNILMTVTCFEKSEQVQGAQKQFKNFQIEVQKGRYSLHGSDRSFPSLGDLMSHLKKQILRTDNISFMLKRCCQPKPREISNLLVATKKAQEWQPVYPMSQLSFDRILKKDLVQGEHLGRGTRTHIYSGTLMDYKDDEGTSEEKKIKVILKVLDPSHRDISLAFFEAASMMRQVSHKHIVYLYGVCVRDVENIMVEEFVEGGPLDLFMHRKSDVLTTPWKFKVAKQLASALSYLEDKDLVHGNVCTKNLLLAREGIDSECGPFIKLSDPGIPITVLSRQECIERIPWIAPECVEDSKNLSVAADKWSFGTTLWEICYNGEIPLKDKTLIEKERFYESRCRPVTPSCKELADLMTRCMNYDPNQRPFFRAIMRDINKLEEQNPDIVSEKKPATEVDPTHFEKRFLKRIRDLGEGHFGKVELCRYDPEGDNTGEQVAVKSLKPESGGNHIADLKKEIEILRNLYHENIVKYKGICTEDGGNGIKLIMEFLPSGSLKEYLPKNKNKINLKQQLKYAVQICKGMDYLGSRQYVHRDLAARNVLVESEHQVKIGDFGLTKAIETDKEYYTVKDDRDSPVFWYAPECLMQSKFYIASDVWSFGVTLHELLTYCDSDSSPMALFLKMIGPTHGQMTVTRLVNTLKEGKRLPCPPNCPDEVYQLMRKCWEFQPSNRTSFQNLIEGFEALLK
T2 sequence (O60674 whole entry): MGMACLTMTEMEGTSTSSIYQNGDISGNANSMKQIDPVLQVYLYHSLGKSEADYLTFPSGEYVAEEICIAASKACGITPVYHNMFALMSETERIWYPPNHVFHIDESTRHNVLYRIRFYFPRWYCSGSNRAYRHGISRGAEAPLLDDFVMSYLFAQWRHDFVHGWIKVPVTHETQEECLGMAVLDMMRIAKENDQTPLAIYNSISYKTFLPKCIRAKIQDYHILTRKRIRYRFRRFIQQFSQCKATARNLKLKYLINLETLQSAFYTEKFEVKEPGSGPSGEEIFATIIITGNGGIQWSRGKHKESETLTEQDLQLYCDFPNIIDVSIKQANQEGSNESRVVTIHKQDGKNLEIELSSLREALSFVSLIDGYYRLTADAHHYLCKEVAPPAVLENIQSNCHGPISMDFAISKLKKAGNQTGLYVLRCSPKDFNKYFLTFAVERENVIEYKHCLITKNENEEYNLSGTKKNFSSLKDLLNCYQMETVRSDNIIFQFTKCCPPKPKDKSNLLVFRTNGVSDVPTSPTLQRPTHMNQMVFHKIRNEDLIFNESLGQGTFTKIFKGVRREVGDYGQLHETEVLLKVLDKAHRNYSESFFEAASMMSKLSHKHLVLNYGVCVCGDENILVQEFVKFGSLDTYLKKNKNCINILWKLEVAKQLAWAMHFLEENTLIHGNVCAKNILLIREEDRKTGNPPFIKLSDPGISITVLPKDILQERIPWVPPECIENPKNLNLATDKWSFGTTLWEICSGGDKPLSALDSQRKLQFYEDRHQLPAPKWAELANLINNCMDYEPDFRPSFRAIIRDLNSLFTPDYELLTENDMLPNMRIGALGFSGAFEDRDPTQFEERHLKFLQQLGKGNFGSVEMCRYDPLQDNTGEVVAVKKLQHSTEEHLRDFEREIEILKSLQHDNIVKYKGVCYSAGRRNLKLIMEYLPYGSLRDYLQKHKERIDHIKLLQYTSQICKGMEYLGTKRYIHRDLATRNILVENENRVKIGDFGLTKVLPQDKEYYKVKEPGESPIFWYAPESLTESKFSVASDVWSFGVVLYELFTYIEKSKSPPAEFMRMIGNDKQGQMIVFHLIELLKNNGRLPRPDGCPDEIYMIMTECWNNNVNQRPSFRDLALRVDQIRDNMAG

| SMILES | Tyk2 selectivity over Jak1 [1] | Tyk2 selectivity over Jak2 [2] |
| --- | --- | --- |
| CO[C@@]1(c2cc(O[C@@H](C)CCO)cc(-c3cn(C)c4cnc(NC(C)=O)cc34)n2)CCOC1 [Example 14.4, N-(3-(4-(((S)-4-hydroxybutan-2-yl)oxy)-6-((R)-3-methoxytetrahydrofuran-3-yl)pyridin-2-yl)-1-methyl-1H-pyrrolo[2,3-c]pyridin-5-yl)acetamide] | 470-fold | >187-fold |
| CO[C@@]1(c2cc(OC[C@H](C)O)cc(-c3cn(C)c4cnc(NC(C)=O)cc34)n2)CCOC1 [Example 14.5, N-(3-(4-((S)-2-hydroxypropoxy)-6-((R)-3-methoxytetrahydrofuran-3-yl)pyridin-2-yl)-1-methyl-1H-pyrrolo[2,3-c]pyridin-5-yl)acetamide] | 486-fold | >171-fold |
| CO[C@@]1(c2cc(OC[C@@H](C)O)cc(-c3cn(C)c4cnc(NC(C)=O)cc34)n2)CCOC1 [Example 14.6, N-(3-(4-((R)-2-hydroxypropoxy)-6-((R)-3-methoxytetrahydrofuran-3-yl)pyridin-2-yl)-1-methyl-1H-pyrrolo[2,3-c]pyridin-5-yl)acetamide] | 563-fold | >287-fold |
| CO[C@@]1(c2cccc(-c3cn([C@H]4C[C@H](C#N)C4)c4cnc(NC(C)=O)cc34)n2)CCOC1 [Example 17, N-(1-((trans)-3-Cyanocyclobutyl)-3-(6-((R)-3-methoxytetrahydrofuran-3-yl)pyridin-2-yl)-1H-pyrrolo[2,3-c]pyridin-5-yl)acetamide] | 871-fold | >806-fold |
| CO[C@@]1(c2cc(C(F)F)cc(-c3cn([C@H]4C[C@H](C#N)C4)c4cnc(NC(C)=O)cc34)n2)CCOC1 [Example 17.2, N-(1-((trans)-3-cyanocyclobutyl)-3-(4-(difluoromethyl)-6-((R)-3-methoxytetrahydrofuran-3-yl)pyridin-2-yl)-1H-pyrrolo[2,3-c]pyridin-5-yl)acetamide] | 243-fold | >174-fold |
| CC(=O)Nc1cc2c(-c3cccc([C@]4(CO)CCOC4)n3)cn(C)c2cn1 [Example 21, (S)-N-(3-(6-(3-(Hydroxymethyl)tetrahydrofuran-3-yl)pyridin-2-yl)-1-methyl-1H-pyrrolo[2,3-c]pyridin-5-yl)acetamide] | 35-fold | >313-fold |
| COCc1cc(-c2cn(C)c3cnc(NC(C)=O)cc23)nc([C@]2(CO)CCOC2)c1 [Example 22, (S)-N-(3-(6-(3-(Hydroxymethyl)tetrahydrofuran-3-yl)-4-(methoxymethyl)pyridin-2-yl)-1-methyl-1H-pyrrolo[2,3-c]pyridin-5-yl)acetamide] | 72-fold | >171-fold |
| CO[C@@]1(c2cc(OC(F)F)cc(-c3cn(C)c4cnc(NC(C)=O)cc34)n2)CCOC1 [Example 22.2, (R)-N-(3-(4-(difluoromethoxy)-6-(3-methoxytetrahydrofuran-3-yl)pyridin-2-yl)-1-methyl-1H-pyrrolo[2,3-c]pyridin-5-yl)acetamide] | 393-fold | >281-fold |
| CC(=O)Nc1cc2c(-c3cc(C(F)F)cc([C@]4(CO)CCOC4)n3)cn(C)c2cn1 [Example 22.5, (S)-N-(3-(4-(difluoromethyl)-6-(3-(hydroxymethyl)tetrahydrofuran-3-yl)pyridin-2-yl)-1-methyl-1H-pyrrolo[2,3-c]pyridin-5-yl)acetamide] | 98-fold | >347-fold |
| COc1cc(-c2cn(C)c3cnc(NC(C)=O)cc23)nc([C@]2(CO)CCOC2)c1 [Example 22.6, (S)-N-(3-(6-(3-(hydroxymethyl)tetrahydrofuran-3-yl)-4-methoxypyridin-2-yl)-1-methyl-1H-pyrrolo[2,3-c]pyridin-5-yl)acetamide] | 85-fold | >192-fold |
